Activity calls are given as the source filed them. No cut-off for these calls is given here.

Type in all cases: cell-based
Assay [1] relates to CV-1. Kind of assay: Inhibition of replicative DNA polymerase […] in SV40 virus infected african green monkey CV1 cells. Particulars: Chlorocebus aethiops.
In assay [2] the test system is CV-1. Kind of assay: Inhibition of replicative DNA polymerase gamma in SV40 virus infected african green monkey CV1 cells. As to conditions: Chlorocebus aethiops.
Assay [3] relates to CV-1. The assay is described as follows: Inhibition of replicative DNA polymerase epsilon in SV40 virus infected african green monkey CV1 cells. Particulars: Chlorocebus aethiops.
In assay [4] the target is DNA topoisomerase 2-alpha (Homo sapiens, UniProt P11388). Kind of assay: Inhibition of DNA topoisomerase 2 in human HeLa cells by kinetoplast DNA decantation assay.
Chain of DNA topoisomerase 2-alpha (P11388 whole entry): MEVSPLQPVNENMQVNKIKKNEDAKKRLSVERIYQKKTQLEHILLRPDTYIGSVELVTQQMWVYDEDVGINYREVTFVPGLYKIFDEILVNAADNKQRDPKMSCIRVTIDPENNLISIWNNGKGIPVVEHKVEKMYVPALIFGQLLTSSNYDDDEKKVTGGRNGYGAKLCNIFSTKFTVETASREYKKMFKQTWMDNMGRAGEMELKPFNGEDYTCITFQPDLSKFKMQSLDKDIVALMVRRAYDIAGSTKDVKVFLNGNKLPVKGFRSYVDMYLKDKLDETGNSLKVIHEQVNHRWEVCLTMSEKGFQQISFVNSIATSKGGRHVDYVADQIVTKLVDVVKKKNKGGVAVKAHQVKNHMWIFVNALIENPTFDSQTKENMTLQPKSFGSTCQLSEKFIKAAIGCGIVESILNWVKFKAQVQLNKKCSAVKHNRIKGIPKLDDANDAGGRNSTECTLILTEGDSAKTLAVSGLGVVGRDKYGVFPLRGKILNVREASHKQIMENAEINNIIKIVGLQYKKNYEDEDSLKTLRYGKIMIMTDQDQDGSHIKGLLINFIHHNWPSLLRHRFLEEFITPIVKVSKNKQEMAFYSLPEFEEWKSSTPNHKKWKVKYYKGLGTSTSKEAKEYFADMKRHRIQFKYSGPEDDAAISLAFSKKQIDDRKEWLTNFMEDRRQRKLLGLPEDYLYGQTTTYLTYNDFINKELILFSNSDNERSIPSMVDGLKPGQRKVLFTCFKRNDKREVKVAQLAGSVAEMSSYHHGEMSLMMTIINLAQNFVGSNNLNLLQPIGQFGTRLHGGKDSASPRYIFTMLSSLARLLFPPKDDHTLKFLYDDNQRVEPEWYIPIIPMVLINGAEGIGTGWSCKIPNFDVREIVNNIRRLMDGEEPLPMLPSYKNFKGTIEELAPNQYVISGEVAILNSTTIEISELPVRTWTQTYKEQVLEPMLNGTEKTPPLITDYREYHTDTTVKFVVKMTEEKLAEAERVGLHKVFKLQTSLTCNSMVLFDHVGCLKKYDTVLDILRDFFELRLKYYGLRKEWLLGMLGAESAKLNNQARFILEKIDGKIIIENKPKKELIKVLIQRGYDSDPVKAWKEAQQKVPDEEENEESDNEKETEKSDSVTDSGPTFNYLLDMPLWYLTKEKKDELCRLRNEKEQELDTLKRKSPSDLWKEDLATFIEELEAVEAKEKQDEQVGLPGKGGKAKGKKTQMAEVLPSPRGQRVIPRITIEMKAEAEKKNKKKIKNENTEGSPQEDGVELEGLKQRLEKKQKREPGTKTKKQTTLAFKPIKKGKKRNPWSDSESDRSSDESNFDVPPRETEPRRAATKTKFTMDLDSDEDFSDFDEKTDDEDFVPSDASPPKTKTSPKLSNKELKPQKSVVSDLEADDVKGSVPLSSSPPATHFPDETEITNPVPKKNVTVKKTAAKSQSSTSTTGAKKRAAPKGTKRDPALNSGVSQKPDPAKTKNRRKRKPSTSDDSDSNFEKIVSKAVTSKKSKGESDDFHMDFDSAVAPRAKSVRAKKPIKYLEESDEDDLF

Turning to `C=C[C@@](C)(/C=C/c1ccc(O)cc1)CCC=C(C)C`, the result in assay [1] and in assay [2] was inactive. In assay [3], the outcome was Active. The compound `O=c1ccc2c(ccc3ccoc32)o1` [BAKUCHICIN] registered a half-maximal inhibitory concentration (IC50) in assay [4] of 404 µM. Regarding `O=c1ccc2cc3ccoc3cc2o1`, the result in assay [4] was inactive. On the same count and under the same terms, the entry for `CC(C)=CCc1cc(-c2coc3cc(O)ccc3c2=O)ccc1O` is “inactive”.

Broadly, the IC50 is the concentration at which inhibition is half-maximal.
